Data: patent US20260242373A1, “NBD1 MODULATORS AND METHODS OF USING THE SAME” (Sionna Therapeutics Inc., priority 2023, published 2026)

Assays:
[1] = tested on: NBD1; test: Aggregation analysis of NBD1 thermal stability by differential static light scattering (DSLS); type: binding, Human; details: 100 μM compound; ΔTagg versus DMSO control
Description: Purified recombinant NBD1 was produced using previously described methods (A. Schmidt, J. L. Mendoza, P. J. Thomas (2011) Biochemical and Biophysical Approaches to Probe CFTR Structure (365-376) M. D. Amaral, K. Kunzelmann (eds.), Cystic Fibrosis, Methods in Molecular Biology 741, Springer Science+Business Media). The effect of test compounds on thermal stability of NBD1 was evaluated by differential static light scattering (DSLS) using the Harbinger Stargazer-384 instrument (Epiphyte Three, Toronto, Canada). Test compounds were dissolved and diluted to desired concentrations in 100% DMSO. The compounds or DMSO controls (100 nL) were stamped into wells of a […] low volume optical plate (Corning Inc., Corning, NY) using the Echo 555 acoustic liquid handler (Labcyte Inc., San Jose, CA).
NBD1 protein was diluted to 0.2 mg/ml in S200 buffer (50 mM Tris-HCl, 150 mM NaCl, 5 mM MgCl2, 2 mM ATP, 2 mM DTT, pH7.6) containing 1% glycerol. 10 uL of protein solution was aliquoted into the 384-well plate harboring the test compounds and 10 uL mineral oil was overlayed onto the protein solution, using the epMotion robotic liquid handler (Eppendorf North America, Hauppauge, NY). After placing into the Stargazer instrument, the plate was heated at 1° C. per minute to 70° C. Images were captured from 25° C. to 70° C. every 0.5° C. At the end of the experiment run, instrument software integrated image files and analyzed data automatically. A […] regression curve was generated for each well, representing the increase in light scattering over time. A temperature of aggregation (Tagg) was calculated based on the inflection point of the curve. To better compare data across experiments the average Tagg for DMSO control wells was calculated and subtracted from values for wells containing compounds to obtain a “ΔTagg” value. These ΔTagg values reflect stabilizing efficacy of the compounds.

[2] = tested on: Primary human bronchial epithelial cells from a ΔF508 homozygous CF donor (CF-HBE cells); test: TECC24 recording of CFTR-mediated transepithelial chloride transport, AUC fold over DMSO; type: cell-based; details: 48 hours incubation, ratio of test agent AUC to vehicle AUC of forskolin-stimulated IEQ
Description: The effects of a test agent on CFTR-mediated transepithelial chloride transport was measured using TECC24 recording analysis. Test agents were solubilized in DMSO. Solubilized test agents were mixed with incubation medium containing DMEM/F12, Ultroser G (2%; Crescent Chemical, catalog #67042), Hyclone Fetal Clone 11 (2%; GE Healthcare, catalog #SH30066.02), bovine brain extract (0.25%; Lonza, catalog #CC-4098), insulin (2.5 μg/mL), IL-13 (10 ng/mL), hydrocortisone (20 nM), transferrin ([…]), triiodothyronine (500 nM), ethanolamine (250 nM), epinephrine (1.5 μM), phosphoethanolamine (250 nM), and retinoic acid (10 nM). Primary human bronchial epithelial cells from a ΔF508 homozygous CF donor (CF-HBE cells; from University of North Carolina Cystic Fibrosis Tissue Procurement Center), grown on Transwell HTS 24-well cell culture inserts (Costar, catalog #3378), were exposed to test agents or controls dissolved in incubation medium. The CF-HBE cells were cultured at 36.5° C. for 48 hours before TECC24 recordings were performed in the presence or absence of test agent, a positive control or vehicle (DMSO).
Following incubation, the transwell cell culture inserts containing the test agent or control-treated CF-HBE cells were loaded onto a TECC24 apparatus (TECC v7 or MTECC v2; EP Design) to record the transepithelial voltage (VT) and resistance (TEER) using 4 AgCl electrodes per well configured in current-clamp mode. The apical and basolateral bath solutions both contained (in mM) 140 NaCl, 5 KCl, 2 CaCl2), 1 MgCl2, 10 Hepes, and 10 glucose (adjusted to pH 7.4 with NaOH). To inhibit basal Na+ absorption, the ENaC inhibitor benzamil (10 μM) was added to the bath. Then, the adenylate cyclase activator, forskolin ([…]), was added to the bath to activate CFTR. The forskolin-stimulated Cl— transport was halted by addition of CFTR inhibitor-172 ([…]) to the bath at the end of the experiment to confirm specificity. […] Efficacy is expressed as the ratio of the test agent AUC divided by vehicle AUC. […]

| SMILES | DSLS NBD1/3D Human Stability delta-T (° C.) @ 100 (μM) [1] | TECC24 @ 10 uM over DMSO [2] |
| --- | --- | --- |
| C[C@@H](c1nc(-c2cc(Oc3c(F)cc4[nH]ccc4c3F)ccc2F)n(C)n1)c1ccc(CCC(=O)O)s1 (single isomer, unassigned) [Compound 44] | B (B: 4-8° C.) | C (“C” refers to AUC @ 10 uM <=4) |
| Cc1c(Oc2ccc(F)c(-c3nc(Cc4csc(CCC(=O)O)c4)c[nH]3)c2)c(F)cc2[nH]ccc12 [Compound 4, 3-(4-((2-(2-fluoro-5-((6-fluoro-4-methyl-1H-indol-5-yl)oxy)phenyl)-1H-imidazol-4-yl)methyl)thiophen-2-yl)propanoic acid] | B (B: 4-8° C.) | C (“C” refers to AUC @ 10 uM <=4) |
| c1cc(Oc2ccc3[nH]ccc3c2)cc(-c2nnc(Cc3cccs3)[nH]2)c1 [Compound 10, 5-(3-(5-(thiophen-2-ylmethyl)-4H-1,2,4-triazol-3-yl)phenoxy)-1H-indole] | C (C: ≤4° C.) | C (“C” refers to AUC @ 10 uM <=4) |
